{"source": "patent US10647725B2", "about": "“Anti-infective 2-aminothiophenes” (priority 2016, dated 2020)", "key": {"Mtb H37Rv [1]": {"test_system": "Mtb H37Rv", "experiment": "modified 96-well microplate Alamar blue assay (MABA), growth inhibition", "assay_type": "cell-based, Mycobacterium tuberculosis", "settings": "for growth inhibition activity in words: SAR discussion; for MIC: Mycobacterium tuberculosis, H37RV, Mtb H37Rv"}, "Mtb H37Rv [2]": {"test_system": "Mtb H37Rv", "experiment": "microbe, parasite or virus in culture", "assay_type": "cell-based", "settings": "Mycobacterium tuberculosis"}, "Mtb H37Rv [3]": {"test_system": "Mtb H37Rv", "experiment": "minimum bactericidal concentration (MBC), kill kinetics over 21 days", "assay_type": "cell-based", "settings": "Mycobacterium tuberculosis, 504 h, aerobic, 7H9-Tw-OADC medium, 2-log kill in 21 days"}, "[4]": {"test_system": "THP-1 human monoocytic cell line", "experiment": "cytotoxicity towards PMA-differentiated THP-1 cells (CellTiter-Glo)", "assay_type": "cell-based"}, "[5]": {"test_system": "autoluminescent Mtb strain derived from Mtb H37Rv in THP-1 cells", "experiment": "microbe, parasite or virus in culture", "assay_type": "cell-based", "settings": "Mycobacterium tuberculosis; for IC50: THP-1, 72 h, read-out: IC50 intracellular activity"}, "[6]": {"test_system": "mycolic acid biosynthesis in Mtb", "experiment": "mycolic acid biosynthesis, [1,2-14C]acetate labeling, TLC and autoradiography", "assay_type": "cell-based, Mycobacterium tuberculosis", "settings": "0.4-4 μg/ml, 16 h"}, "Mtb H37Rv mc26206": {"test_system": "Mtb H37Rv mc26206", "experiment": "microbe, parasite or virus in culture", "assay_type": "cell-based", "settings": "Mycobacterium tuberculosis"}, "Mycobacterium abscessus": {"test_system": "Mycobacterium abscessus", "experiment": "MIC against Mycobacterium abscessus, OD590", "settings": "Mycobacteroides abscessus", "method": "The activity of compounds against Mycobacterium abscessus and Mycobacterium avium was assessed under aerobic conditions by determining the minimum inhibitory concentration of compound (MIC). The strains were M. abscessus subsp. bollettii 103 and M. avium subsp. avium 2285 (S). The assay was based on measurement of growth in liquid medium of each strain where the readout is optical density (OD) or metabolic activity (using Alamar blue).\nThe MIC of compound against Mycobacterium abscessus and Mycobacterium avium was determined by measuring bacterial growth in the presence of test compounds. Compounds were prepared as 20-point two-fold serial dilutions in DMSO and diluted into 7H9-Tw-OADC medium in 96-well plates with a final DMSO concentration of 2%. The highest concentration of compound was 200 μM where compounds were soluble in DMSO at 10 mM. Each plate included assay controls for background (medium/DMSO only, no bacterial cells), zero growth (100 μM rifampicin) and maximum growth (DMSO only), as well as a rifampicin dose response curve.\nFor Mycobacterium abscessus, plates were inoculated with M. abscessus and incubated for 3 days at 37° C.; growth was measured by OD590. […] Rifampicin was included once in each run. […] If no point reached 75% inhibition, the MIC was reported as >maximum concentration tested."}}, "note": "“Also recorded” adds a separate entry of the source.", "data": [{"compound": "CCOC(=O)c1c(NC(=O)c2c(F)c(F)c(F)c(F)c2F)sc2c1CCN(C(=O)OC(C)(C)C)C2", "note": "[4{2,3,0}, 6-(Tert-butyl) 3-ethyl 2-(perfluorobenzamido)-4,7-dihydrothieno[2,3-c]pyridine-3,6(5H)-dicarboxylate]", "values": [{"measurement": "growth inhibition activity in words", "setting": "Mtb H37Rv [1]", "value": "inactive"}]}, {"compound": "CCOC(=O)c1c(NC(=O)c2c(F)c(F)c(F)c(F)c2F)sc2c1CCN(CC)C2", "note": "[4{3,3,0}, ethyl 6-ethyl-2-(perfluorobenzamido)-4,5,6,7-tetrahydrothieno[2,3-c]pyridine-3-carboxylate]", "values": [{"measurement": "increase in potency compared to compound 4{4,3,0}", "setting": "Mtb H37Rv [1]", "value": 40, "unit": "fold"}, {"measurement": "MIC", "setting": "Mtb H37Rv [2]", "value": 0.23, "unit": "µM"}, {"measurement": "MBC", "setting": "Mtb H37Rv [3]", "value": "< 5", "unit": "µM"}, {"measurement": "IC50", "setting": "[4]; Homo sapiens, 72 h, THP-1 macrophage-like cells, 3 days, read-out: IC50 (concentration causing a 50% loss in viability)", "value": 6.2, "unit": "µM"}, {"measurement": "macrophage viability IC50 relative to the MIC", "setting": "[4]; times higher than the MIC", "value": 27, "unit": "times"}, {"measurement": "IC50", "setting": "[5]", "value": 5600, "unit": "nM"}, {"measurement": "IC90", "setting": "[5]; THP-1, read-out: IC90 intracellular activity", "value": 9.75, "unit": "µM"}, {"measurement": "effect on synthesis of mycolic acids (TMM, TDM, mAG-attached mycolates)", "setting": "[6]", "value": "strongly inhibits the biosynthesis of all forms of mycolic acid; also recorded: strongly inhibits the synthesis of all forms of mycolic acids"}, {"measurement": "MIC", "setting": "Mtb H37Rv mc26206", "value": 0.4, "unit": "µg/mL"}, {"measurement": "MIC", "setting": "Mycobacterium abscessus", "value": 1.11, "unit": "µg/mL"}]}, {"compound": "CCOC(=O)c1c(NC(=O)c2cc(C(F)(F)F)cc(C(F)(F)F)c2)sc2c1CCN(CC)C2", "note": "[4{3,4,0}, Ethyl 2-(3,5-bis(trifluoromethyl)benzamido)-6-ethyl-4,5,6,7-tetrahydrothieno[2,3-c]pyridine-3-carboxylate]", "values": [{"measurement": "MIC", "setting": "Mtb H37Rv [1]; read-out: MIC", "value": "> 100", "unit": "µg/mL"}]}, {"compound": "CCN1CCc2c(sc(NC(=O)c3cc(C(F)(F)F)cc(C(F)(F)F)c3)c2C(=O)NCc2ccc(C)cc2)C1", "note": "[4{3,4,3}, 2-(3,5-Bis(trifluoromethyl)benzamido)-6-ethyl-N-(4-methylbenzyl)-4,5,6,7-tetrahydrothieno[2,3-c]pyridine-3-carboxamide]", "values": [{"measurement": "MIC", "setting": "Mtb H37Rv [1]", "value": "≥ 200", "unit": "µg/mL"}]}, {"compound": "CCOC(=O)c1c(NC(=O)c2ccccc2)sc2c1CCCC2", "note": "[4{4,2,0}]", "values": [{"measurement": "growth inhibition activity in words", "setting": "Mtb H37Rv [1]", "value": "no activity"}]}, {"compound": "CCOC(=O)c1cc(-c2ccccc2)sc1NC(=O)c1c(F)c(F)c(F)c(F)c1F", "note": "[4{5,3,0}, Ethyl 2-(perfluorobenzamido)-5-phenylthiophene-3-carboxylate]", "values": [{"measurement": "MIC", "setting": "Mtb H37Rv [1]; read-out: MIC", "value": "> 100", "unit": "µg/mL"}]}, {"compound": "NNC(=O)c1ccncc1", "note": "[INH, Isoniazid, reference compound]", "values": [{"measurement": "IC50", "setting": "[5]", "value": 240, "unit": "nM"}]}]}
